Assay results reported in ChEMBL document CHEMBL4138283, “Cyclizidine-Type Alkaloids from Streptomyces sp. HNA39” (J Nat Prod, 2018).

How the values were obtained:
[1] = biological target: Rho-associated protein kinase 2 (Homo sapiens, UniProt O75116); assay: Inhibition of ROCK2 (unknown origin) using SKT S2 as substrate measured after 30 mins by HTRF assay
HCT-116 = assay: Cytotoxicity against human HCT116 cells by sulforhodamine B assay; type: functional, cell-based
PC-3 = assay: Cytotoxicity against human PC3 cells by sulforhodamine B assay; type: functional, cell-based

Sequence of Rho-associated protein kinase 2 (O75116 whole entry): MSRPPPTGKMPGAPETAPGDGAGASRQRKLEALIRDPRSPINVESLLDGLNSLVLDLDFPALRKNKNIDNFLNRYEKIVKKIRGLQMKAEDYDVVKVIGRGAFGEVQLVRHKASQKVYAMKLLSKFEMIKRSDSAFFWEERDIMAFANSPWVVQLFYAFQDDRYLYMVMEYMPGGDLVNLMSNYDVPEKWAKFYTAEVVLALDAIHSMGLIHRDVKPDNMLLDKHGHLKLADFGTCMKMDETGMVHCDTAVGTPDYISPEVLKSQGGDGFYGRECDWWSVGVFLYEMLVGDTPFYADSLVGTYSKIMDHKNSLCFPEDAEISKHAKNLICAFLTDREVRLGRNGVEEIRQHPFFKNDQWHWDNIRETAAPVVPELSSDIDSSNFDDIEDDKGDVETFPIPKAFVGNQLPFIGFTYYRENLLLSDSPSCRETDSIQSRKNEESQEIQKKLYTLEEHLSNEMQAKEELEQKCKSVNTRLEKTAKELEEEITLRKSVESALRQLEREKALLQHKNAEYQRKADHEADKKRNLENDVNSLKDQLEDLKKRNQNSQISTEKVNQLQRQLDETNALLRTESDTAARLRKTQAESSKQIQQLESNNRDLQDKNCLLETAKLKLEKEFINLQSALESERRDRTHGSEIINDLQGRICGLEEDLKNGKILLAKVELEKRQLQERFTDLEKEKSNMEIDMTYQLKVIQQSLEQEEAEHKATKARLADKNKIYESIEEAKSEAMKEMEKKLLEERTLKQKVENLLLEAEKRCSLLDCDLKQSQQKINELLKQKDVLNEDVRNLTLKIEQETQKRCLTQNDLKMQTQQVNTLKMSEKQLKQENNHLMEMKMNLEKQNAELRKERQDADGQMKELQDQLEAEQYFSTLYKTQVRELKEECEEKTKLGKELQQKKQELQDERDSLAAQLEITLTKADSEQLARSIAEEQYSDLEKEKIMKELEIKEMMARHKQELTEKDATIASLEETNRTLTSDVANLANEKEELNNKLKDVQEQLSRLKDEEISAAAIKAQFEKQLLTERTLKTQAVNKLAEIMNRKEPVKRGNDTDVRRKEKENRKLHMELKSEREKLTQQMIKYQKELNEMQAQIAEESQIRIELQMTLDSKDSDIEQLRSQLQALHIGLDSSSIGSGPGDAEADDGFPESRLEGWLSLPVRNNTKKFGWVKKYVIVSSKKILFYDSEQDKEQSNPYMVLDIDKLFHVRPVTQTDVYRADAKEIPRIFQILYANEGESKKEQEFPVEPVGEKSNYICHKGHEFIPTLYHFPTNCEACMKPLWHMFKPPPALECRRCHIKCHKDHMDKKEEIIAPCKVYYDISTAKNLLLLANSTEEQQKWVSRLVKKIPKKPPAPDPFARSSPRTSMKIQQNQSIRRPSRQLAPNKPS

Q: Which IC50 [1] does the source give for `CC(/C=C/C1CC1)=C\[C@H]1[C@H](O)[C@@](C)(O)[C@H]2[C@H](O)[C@@H](O)CCN12` here?
A: 7 µM

Q: And the IC50 (HCT-116)?
A: 8.3 µM

Q: What about the IC50 (PC-3) of the same compound?
A: 0.52 µM

Q: What does the source list for `CC(/C=C/C1CC1)=C\[C@H]1[C@H](O)[C@@](C)(O)c2c(O)ccc[n+]21`?
A: IC50 [1]: 27 µM; IC50 (HCT-116): > 40 µM; IC50 (PC-3): > 40 µM

Q: How did the IC50 [1] turn out when `CC(/C=C/C1CC1)=C\[C@H]1[C@H](O)[C@@](C)(O)[C@H]2[C@H](O)[C@@H](Cl)CCN12` was run?
A: > 100 µM

Q: And the IC50 (HCT-116)?
A: 40 µM

Q: What about the IC50 (PC-3) of the same compound?
A: 33 µM

Q: For `C/C(=C\C=C\CCO)C[C@H]1[C@H](O)[C@@](C)(O)[C@H]2[C@H](O)[C@@H](Cl)CCN12`, which IC50 [1] is on record?
A: 42 µM

Q: What about the IC50 (HCT-116) of the same compound?
A: > 40 µM

Q: What about the IC50 (PC-3) of the same compound?
A: 17 µM

Q: What does the source list for `CC(/C=C/C1CC1)=C\[C@H]1[C@H](O)[C@@](C)(O)[C@H]2CCCCN12`?
A: IC50 [1]: > 100 µM; IC50 (HCT-116): > 40 µM; IC50 (PC-3): > 40 µM

Q: `C/C(=C\C=C\CCO)C[C@H]1[C@H](O)[C@@](C)(O)[C@H]2CCCCN12` was tested. Which IC50 [1] did it give?
A: > 100 µM

Q: And the IC50 (HCT-116)?
A: > 40 µM

Q: And the IC50 (PC-3)?
A: > 40 µM

Q: `CC(/C=C/C1CC1)=C\[C@H]1[C@H](O)[C@@](C)(O)[C@H]2[C@@H]3O[C@@H]3CCN12` was tested. Which IC50 [1] did it give?
A: > 100 µM

Q: What about the IC50 (HCT-116) of the same compound?
A: 28 µM

Q: What about the IC50 (PC-3) of the same compound?
A: 23 µM

Q: What does the source list for `CC(/C=C/C1CC1)=C\[C@H]1[C@H](O)[C@@](C)(O)c2cccc[n+]21`?
A: IC50 [1]: > 100 µM; IC50 (HCT-116): > 40 µM; IC50 (PC-3): > 40 µM

Q: How did the IC50 [1] turn out when `C/C(=C/C=C/CCO)C[C@H]1[C@H](O)[C@@](C)(O)[C@H]2[C@H](O)[C@@H](Cl)CCN12` was run?
A: 39 µM

Q: What about the IC50 (HCT-116) of the same compound?
A: > 40 µM

Q: And the IC50 (PC-3)?
A: > 40 µM

Q: For `CN[C@@H]1C[C@H]2O[C@@](C)([C@@H]1OC)n1c3ccccc3c3c4c(c5c6ccccc6n2c5c31)C(=O)NC4` [STAUROSPORINE], which IC50 (PC-3) is on record?
A: 0.017 µM
